The text below walks through data of patent US6191273A, “Substituted cyclic compounds and mixtures comprising same” (Isis Pharmaceuticals, Inc., priority 1998, dated 2001).

For assay [1], the system named is S. pyogenes [American Type Culture Collection (ATCC) # 14289]. In words: Streptococcus pyogenes bacterial growth assay (Tier I antimicrobial). The format is cell-based. Particulars: read-out: inhibition in the S. pyogenes procedure. The protocol: S. pyogenes [American Type Culture Collection (ATCC) # 14289] is used in this bacterial growth assay. To initiate the exponential phase of bacterial growth prior to the assay, a sample of bacteria is grown for 6 hours in Todd Hewitt Broth (Difco 0492-17-6) at 37° C. then re-inoculated into fresh media and grown overnight at 37° C. The bacterial cells are collected by centrifugation for 10 minutes at 3200 rpm, diluted and absorbance read at 595 nm. Bacteria diluted in 2× Todd-Hewitt Broth (75 μL) are added to the compound mixtures (75 μL) for a total volume of 150 μL. The assays are performed in 96-well microplates with approximately 1×10^4 colony forming units (CFU) per well. The plates are incubated at 37° C. and growth monitored over a 24 hour period by measuring the optical density at 595 nm using a BioRad model 3550 UV microplate reader. The percentage of growth relative to a well containing no test compound or library is determined. Ampicillin and tetracycline antibiotic controls are concurrently tested in each screening assay.
Compounds are assayed in duplicate at a single dose. Compounds which show inhibitory activity are re-tested in duplicate at multiple doses to determine minimum inhibitory concentration (MIC).

The subject of the next assay is E. coli imp-. In words: E. coli imp- bacterial growth assay (Tier I antimicrobial). Type of assay: cell-based. Particulars: Escherichia coli, read-out: inhibition in the E. coli procedure. How it is done: The strain E. coli imp- obtained from Spencer Benson (Sampson, B. A., Misra, R. & Benson, S. A., Genetics, 1989, 122, 491-501, Identification and characterization of a new gene of Escherichia coli K-12 involved in outer membrane permeability) is used in this bacterial growth assay. To initiate the exponential phase of bacterial growth prior to the assay, a sample of bacteria is grown for 6 hours in Mueller Hinton II Broth (BBL 12322) at 37° C. then re-inoculated into fresh media and grown overnight at 37° C. The bacterial cells are collected by centrifugation for 10 minutes at 3200 rpm, diluted and absorbance read at 595 nm. Bacteria diluted in 2× Mueller Hinton II Broth (75 μL) are added to the compound mixtures (75μL) for a total volume of 150 μL. The assays are performed in 96-well microplates with approximately 1×10^4 colony forming units (CFU) per well. The plates are incubated at 37° C. and growth monitored over a 24 hour period by measuring the optical density at 595 nm using a BioRad model 3550 UV microplate reader. The percentage of growth relative to a well containing no compound is determined. Ampicillin and tetracycline antibiotic controls are concurrently tested in each screening assay.
Compounds are assayed in duplicate at a single dose. […]

For orientation: inhibition means the drop in the measured response relative to a control, in per cent. `N=C(N)NCc1cccc(CN(CCNCCCO)Cc2cccc(C(F)(F)F)c2)n1` [Example 71]: the inhibition at 100 µM in assay [1] worked out at 95%. With `NC(=O)CN(Cc1cccc(C(F)(F)F)c1)Cc1cccc(CN(CCNCCCO)Cc2cccc(C(F)(F)F)c2)n1` [Example 66], the inhibition at 100 µM in assay [1] amounted to 95%; in the assay on E. coli imp- it was 87%.
